Results: patent US20180036289A1 (Gilead Sciences, Inc., priority 2016, published 2018)

Assays:
Assay in all cases: Cell proliferation assay (ATPlite), drug with vs without cobicistat
Assay type in all cases: cell-based
SW620 = SW620 cell line; 120 hours incubation
Procedure: (§1) All cell lines were obtained from the American Type Culture Collection (ATCC) Manassas, Va. (US). Master and working cell banks (MCB and WCB) were prepared by subculturing in ATCC-recommended media and freezing protocols (www.atcc.org). Cell line stocks for the assays were prepared from the WCB. The MCB, WCBs and assay stocks were prepared within respectively 3, 6 and 9 passages of the ATCC vial.
(§2) Solid powders of reference compounds were weighed on a calibrated balance and dissolved in 100% DMSO. DMSO samples were stored at room temperature. At the day of the experiment, the compound stock was diluted in 3.16 fold steps in 100% DMSO to obtain a 9-point dilution series. This was further diluted 31.6 times in 20 mM sterile Hepes buffer pH 7.4. A volume of 5 μl was transferred to the cells to generate a test concentration range from 3.16×10^−5M to 3.16×10^−9 M in duplicate. The final DMSO concentration during incubation was […] in all wells.
(§3) An assay stock was thawed and diluted in its ATCC recommended medium and dispensed in a 384-well plate, depending on the cell line used, at a concentration of 200-3200 cells per well in 45 μl medium. For each used cell line the optimal cell density is used. The margins of the plate were filled with phosphate-buffered saline. Plated cells were incubated in a humidified atmosphere of 5% CO2 at 37° C. After 24 hours, 5 μl of compound dilution was added and plates were further incubated for another 120 hours. After 120 hours, 25 μl of ATPlite 1Step™ (PerkinElmer) solution was added to each well, and subsequently shaken for 2 minutes. After 10 minutes of incubation in the dark, the luminescence was recorded on an Envision multimode reader (PerkinElmer).
(§4) IC50s were calculated by non-linear regression using IDBS XLfit 5. The percentage growth after 120 h (%-growth) was calculated as follows: 100%×(luminescencet=120h/luminescenceuntreated,t=120h). This was fitted to the ^10log compound concentration (conc) by a 4-parameter logistics curve: %−growth=bottom+(top−bottom)/(1+10^(log IC50-conc)*hill)), where hill is the Hill-coefficient, and bottom and top the asymptotic minimum and maximum cell growth that the compound allows in that assay.

RPMI-7951 = RPMI-7951 cell line; 120 hours incubation
Procedure: as §1, §2, §3, §4

A-427 = A-427 cell line; 120 hours incubation
Procedure: as §1, §2, §3, §4

SW948 = SW948 cell line; 120 hours incubation
Procedure: as §1, §2, §3, §4

C-33 A = C-33 A cell line; 120 hours incubation
Procedure: as §1, §2, §3, §4

A-704 = A-704 cell line; 120 hours incubation
Procedure: as §1, §2, §3, §4

A-549 = A-549 cell line; 120 hours incubation
Procedure: as §1, §2, §3, §4

RT4 = RT4 cell line; 120 hours incubation
Procedure: as §1, §2, §3, §4

A-204 = A-204 cell line; 120 hours incubation
Procedure: as §1, §2, §3, §4

A375 = A375 cell line; 120 hours incubation
Procedure: as §1, §2, §3, §4

NCI-H82 = NCI-H82 cell line; 120 hours incubation
Procedure: as §1, §2, §3, §4

AsPC-1 = AsPC-1 cell line; 120 hours incubation
Procedure: as §1, §2, §3, §4

MOLT-4 = MOLT-4 cell line; 120 hours incubation
Procedure: as §1, §2, §3, §4

T98G = T98G cell line; 120 hours incubation
Procedure: as §1, §2, §3, §4

PA-1 = PA-1 cell line; 120 hours incubation
Procedure: as §1, §2, §3, §4

K-562 = K-562 cell line; 120 hours incubation
Procedure: as §1, §2, §3, §4

Hs 578T = Hs 578T cell line; 120 hours incubation
Procedure: as §1, §2, §3, §4

MeWo = MeWo cell line; 120 hours incubation
Procedure: as §1, §2, §3, §4

SK-N-FI = SK-N-FI cell line; 120 hours incubation
Procedure: as §1, §2, §3, §4

FaDu = FaDu cell line; 120 hours incubation
Procedure: as §1, §2, §3, §4

BT-20 = BT-20 cell line; 120 hours incubation
Procedure: as §1, §2, §3, §4

SK-N-AS = SK-N-AS cell line; 120 hours incubation
Procedure: as §1, §2, §3, §4

VA-ES-BJ = VA-ES-BJ cell line; 120 hours incubation
Procedure: as §1, §2, §3, §4

SHP-77 = SHP-77 cell line; 120 hours incubation
Procedure: as §1, §2, §3, §4

A-172 = A-172 cell line; 120 hours incubation
Procedure: as §1, §2, §3, §4

SW480 = SW480 cell line; 120 hours incubation
Procedure: as §1, §2, §3, §4

DU 145 = DU 145 cell line; 120 hours incubation
Procedure: as §1, §2, §3, §4

SW48 = SW48 cell line; 120 hours incubation
Procedure: as §1, §2, §3, §4

U-2 OS = U-2 OS cell line; 120 hours incubation
Procedure: as §1, §2, §3, §4

MIA PaCa-2 = MIA PaCa-2 cell line; 120 hours incubation
Procedure: as §1, §2, §3, §4

SMILES | Fold change in IC50 (IC50 [Drug + Cobicistat]/IC50 [Drug]) (SW620) | Fold change in IC50 (IC50 [Drug + Cobicistat]/IC50 [Drug]) (RPMI-7951) | Fold change in IC50 (IC50 [Drug + Cobicistat]/IC50 [Drug]) (A-427) | Fold change in IC50 (IC50 [Drug + Cobicistat]/IC50 [Drug]) (SW948) | Fold change in IC50 (IC50 [Drug + Cobicistat]/IC50 [Drug]) (C-33 A) | Fold change in IC50 (IC50 [Drug + Cobicistat]/IC50 [Drug]) (A-704) | Fold change in IC50 (IC50 [Drug + Cobicistat]/IC50 [Drug]) (A-549) | Fold change in IC50 (IC50 [Drug + Cobicistat]/IC50 [Drug]) (RT4) | Fold change in IC50 (IC50 [Drug + Cobicistat]/IC50 [Drug]) (A-204) | Fold change in IC50 (IC50 [Drug + Cobicistat]/IC50 [Drug]) (A375) | Fold change in IC50 (IC50 [Drug + Cobicistat]/IC50 [Drug]) (NCI-H82) | Fold change in IC50 (IC50 [Drug + Cobicistat]/IC50 [Drug]) (AsPC-1) | Fold change in IC50 (IC50 [Drug + Cobicistat]/IC50 [Drug]) (MOLT-4) | Fold change in IC50 (IC50 [Drug + Cobicistat]/IC50 [Drug]) (T98G) | Fold change in IC50 (IC50 [Drug + Cobicistat]/IC50 [Drug]) (PA-1) | Fold change in IC50 (IC50 [Drug + Cobicistat]/IC50 [Drug]) (K-562) | Fold change in IC50 (IC50 [Drug + Cobicistat]/IC50 [Drug]) (Hs 578T) | Fold change in IC50 (IC50 [Drug + Cobicistat]/IC50 [Drug]) (MeWo) | Fold change in IC50 (IC50 [Drug + Cobicistat]/IC50 [Drug]) (SK-N-FI) | Fold change in IC50 (IC50 [Drug + Cobicistat]/IC50 [Drug]) (FaDu) | also measured
Cc1nc(Nc2ncc(C(=O)Nc3c(C)cccc3Cl)s2)cc(N2CCN(CCO)CC2)n1 [dasatinib] | 3.2 fold | 3.0 fold | 5.8 fold | 1.2 fold | 1.2 fold | 1.0 fold | 1.0 fold | 2.5 fold | 2.2 fold | 1.3 fold | 1.1 fold | 1.2 fold | 1.1 fold | 2.3 fold | 2.6 fold | 1.1 fold | 2.5 fold | 1.0 fold | 2.0 fold | 2.1 fold | Fold change in IC50 (IC50 [Drug + Cobicistat]/IC50 [Drug]) (BT-20): 1.4 fold; Fold change in IC50 (IC50 [Drug + Cobicistat]/IC50 [Drug]) (SK-N-AS): 1.6 fold; Fold change in IC50 (IC50 [Drug + Cobicistat]/IC50 [Drug]) (VA-ES-BJ): 3.1 fold; Fold change in IC50 (IC50 [Drug + Cobicistat]/IC50 [Drug]) (SHP-77): 1.4 fold; Fold change in IC50 (IC50 [Drug + Cobicistat]/IC50 [Drug]) (A-172): 1.7 fold; Fold change in IC50 (IC50 [Drug + Cobicistat]/IC50 [Drug]) (SW480): 1.0 fold; Fold change in IC50 (IC50 [Drug + Cobicistat]/IC50 [Drug]) (DU 145): 3.6 fold; Fold change in IC50 (IC50 [Drug + Cobicistat]/IC50 [Drug]) (SW48): 2.2 fold; Fold change in IC50 (IC50 [Drug + Cobicistat]/IC50 [Drug]) (U-2 OS): 4.0 fold; Fold change in IC50 (IC50 [Drug + Cobicistat]/IC50 [Drug]) (MIA PaCa-2): 2.2 fold
CC[C@]1(O)C[C@H]2CN(CCc3c([nH]c4ccccc34)[C@@](C(=O)OC)(c3cc4c(cc3OC)N(C=O)[C@H]3[C@@](O)(C(=O)OC)[C@H](OC(C)=O)[C@]5(CC)C=CCN6CC[C@]43[C@@H]65)C2)C1 [vincristine] | 3.0 fold | 4.6 fold | 1.9 fold | 3.5 fold | 2.7 fold | 2.0 fold | 1.9 fold | 4.0 fold | 4.4 fold | 4.4 fold | 3.1 fold | 3.1 fold | 2.1 fold | 4.1 fold | 4.2 fold | 3.5 fold | 2.8 fold | 2.9 fold | 2.7 fold | 2.8 fold | Fold change in IC50 (IC50 [Drug + Cobicistat]/IC50 [Drug]) (BT-20): 3.2 fold; Fold change in IC50 (IC50 [Drug + Cobicistat]/IC50 [Drug]) (SK-N-AS): 4.7 fold; Fold change in IC50 (IC50 [Drug + Cobicistat]/IC50 [Drug]) (VA-ES-BJ): 5.4 fold; Fold change in IC50 (IC50 [Drug + Cobicistat]/IC50 [Drug]) (SHP-77): 2.6 fold; Fold change in IC50 (IC50 [Drug + Cobicistat]/IC50 [Drug]) (A-172): 3.3 fold; Fold change in IC50 (IC50 [Drug + Cobicistat]/IC50 [Drug]) (SW480): 3.3 fold; Fold change in IC50 (IC50 [Drug + Cobicistat]/IC50 [Drug]) (DU 145): 3.8 fold; Fold change in IC50 (IC50 [Drug + Cobicistat]/IC50 [Drug]) (SW48): 2.7 fold; Fold change in IC50 (IC50 [Drug + Cobicistat]/IC50 [Drug]) (U-2 OS): 3.5 fold; Fold change in IC50 (IC50 [Drug + Cobicistat]/IC50 [Drug]) (MIA PaCa-2): 3.6 fold
